Converted amounts (≈) assume the structure as drawn.
Details: not given

SMILES	logP	solubility
Cc1cc(O)cc(C)c1Cl	3.27	–
O=[N+]([O-])c1ccc2c(c1)Cc1ccccc1-2	3.37	–
COc1ccc(Oc2ccc(NC(=O)N(C)C)cc2)cc1	2.54	–
CC(=O)Nc1nc2c(ncn2COCCO)c(=O)[nH]1	-1.3	–
N=C(N)NN=Cc1cccs1	0.98	–
COc1cc2nc(N3CCN(C(=O)C4COc5ccccc5O4)CC3)nc(N)c2cc1OC (stereo not drawn)	3.3	–
CCCCCN(CCCCC)N=O	3.86	–
CCCOC(=O)c1ccccc1O	3.8	–
CS(=O)CCCOc1ccc([N+](=O)[O-])cc1 (stereo not drawn)	0.93	–
CC(C)(C)[C@@H](O)[C@@H](Cc1ccc(Cl)cc1)n1cncn1 (single isomer, unassigned)	3.2	–
Cn1cnc(I)c1[N+](=O)[O-]	1.29	–
CC(=O)c1ccc2cc(C(C)C(=O)OCC(=O)N(C)C)ccc2c1 (stereo not drawn)	2.05	–
N=C(N)NN=Cc1ccc([N+](=O)[O-])cc1	0.87	–
CCCCc1ccc(Cn2cncn2)cc1	2.81	–
CC(=O)Nc1nc(=O)c2ncn(COCCOC(C)=O)c2[nH]1	-0.85	–
CN1C(=O)CC[C@H]1c1cccnc1	0.07	–
CCCNC1=NC(=O)C(=Cc2ccc([N+](=O)[O-])o2)S1	1.24	–
ClC1=C(Cl)C2(Cl)C(CBr)CC1(Cl)C2(Cl)Cl (stereo not drawn)	5.9	–
NC(Cc1ccc(O)c(O)c1)C(=O)OCCc1ccc(Cl)cc1 (stereo not drawn)	2.33	–
CCN(CC)P(=O)(N(C)C)N(C)C	0.66	–
Clc1ccc(Cl)nn1	0.7	–
c1ccc2c(c1)sc1ccccc12	–	0.00798 mM (≈ 1.47 µg/mL)
CC(O)C#N (stereo not drawn)	-0.94	–
C=CCN1CCC(CNC(=O)c2cc3nn[nH]c3cc2OC)C1 (stereo not drawn)	0.95	–

SMILES	logP	solubility
COc1cccc(C=O)c1	1.71	–
CC(C)c1ccc2c(c1)CC[C@H]1[C@](C)(C(=O)O)CCC[C@]21C	4.8	0.022 mM (≈ 6.6 µg/mL)
Cc1ccc(OP(=O)(Oc2ccc(C)cc2)Oc2ccc(C)cc2)cc1	–	0.000814 mM (≈ 0.3 µg/mL)
O=C1NCCC2CNC(=O)C12 (stereo not drawn)	-1.95	–
CN(C)c1ccc(N=c2snc3sc(S(N)(=O)=O)nn23)cc1	2.32	–
Clc1cc(Cl)cc(O[Si]23OCCN(CCO2)CCO3)c1	1.22	–
C=CC(=O)NCCN1CCOCC1	-0.55	–
CCc1c(O)c(=O)ccn1C	-0.2	–
CC(C)(C)NSc1nc2ccccc2s1	4.67	–
Cc1ccc(C)c2c(C)cccc12	4.9	–
CN(CCO)C(=O)COC(=O)c1ccccc1O	0.86	–
O=C(OCc1ccccc1)c1ccc(O)cc1	3.56	–
COc1ccc2c(c1)OCC1(O)c3cc4c(cc3OC21)OCO4 (stereo not drawn)	2.58	–
CN(C)C(=O)COC(=O)c1ccccc1O	1.21	–
CC[C@H](C)C(=O)O[C@H]1C[C@H](O)C=C2C=C[C@H](C)[C@H](CC[C@@H](O)C[C@@H](O)CC(=O)[O-])[C@H]21.[Na+]	-0.23	–
CC(=NN=C(N)N)c1cccs1	1.05	–
CCOC1OC2OC3(C)CC(O)C4C(C)CCC(C1C)C24OO3 (stereo not drawn)	2.7	–
Cc1cccc(C)c1NC(=O)c1cc(S(N)(=O)=O)c(Cl)cc1O	2.19	–
CC(=O)Oc1cc(C(C)C)c(OCCN(C)C)cc1C	3.17	–
CCNc1nc(NC(C)C)nc(OC)n1	2.69	–
NS(=O)(=O)c1cc2c(cc1Cl)N=C(CSCc1ccccc1)NS2(=O)=O	1.73	–
Nc1cccc2c(N)cccc12	0.89	–
COC1=CC(=O)C=C(OC)C1=O	-0.06	–
CC(=O)Nc1cc(NS(=O)(=O)C(F)(F)F)c(C)cc1C	2.02	–

SMILES	logP	solubility
CCC(Oc1ccc(Cl)cc1C)C(=O)O (stereo not drawn)	3.47	–
O=C(O)c1cc(Oc2ccc(C(F)(F)F)cc2Cl)ccc1[N+](=O)[O-]	3.7	–
COc1ccc(C=[N+]([O-])C(C)(C)C)cc1	1.21	–
Clc1ccc(O[Si]23OCCN(CCO2)CCO3)cc1	0.6	–
CCCCNCc1ccccc1	2.59	–
CCCN1CCOC2c3cccc(O)c3CCC21 (stereo not drawn)	2.22	–
CCNc1nc(N)nc(Cl)n1	1.15	3.86 mM (≈ 670 µg/mL)
COC(=O)C1CC(=O)N(C)C1 (stereo not drawn)	-0.74	–
COc1cccc(N=c2snc3sc(S(N)(=O)=O)nn23)c1	2.66	–
CCSCCn1cnc2c(=N)n(C)c(=O)[nH]c21	0	–
CCOC(=O)c1ccccc1C(=O)OCC	2.42	–
CCCCC(OC(Cc1ccccc1)C(=O)N1CCC(OCOC)CC1)C(=O)NC(CC1CCCCC1)C(O)CC(C(=O)NCCCNC(=NC#N)NC)C(C)C (stereo not drawn)	4.4	–
C=CCSCC1Nc2cc(Cl)c(S(N)(=O)=O)cc2S(=O)(=O)N1 (stereo not drawn)	1.17	–
Cc1ccc(-c2ccc(C)cc2)cc1	5.09	–
OC(CNC1CCCCC1Br)Cn1ccnc1 (stereo not drawn)	1.21	–
COc1cc(Cl)c(Cl)c(Cl)c1Cl	4.51	–
COc1cc(OC)ncn1	0.96	–
CCCCn1cccc(O)c1=O	1.18	–
Clc1cc2c(Cl)cc(Cl)c(Cl)c2c(Cl)c1Cl	7.5	–
CC(CCC(=O)NCC(=O)O)C1CCC2C3C(O)CC4CC(O)CCC4(C)C3CCC12C (stereo not drawn)	2.12	–
NS(=O)(=O)c1cc2cc(CN3CCOCC3)sc2o1	0.88	–
CC(=O)N[C@@H](Cc1ccccc1)C(=O)O	0.93	–
CCOC(=O)C1CNC(=O)CC1C(=O)OCC (stereo not drawn)	-0.03	–
CN(C)C(=S)N(C)C	0.49	–

SMILES	logP	solubility
Cc1cc(Cl)c(Cl)cc1Cc1ccc(Cl)cc1Cl	7.41	–
CN(CCN)S(=O)(=O)c1ccc(C(C)(C)[N+](=O)[O-])c([N+](=O)[O-])c1	0.65	–
CC(=O)O[C@@H]1C[C@H]2CC[C@]1(C)C2(C)C	4.3	–
COc1cc(Cl)c(Cl)c(Cl)c1O	3.72	–
Clc1ccc(Cn2cncn2)cc1	1.84	–
CC(=NNC(N)=Nc1ccccc1)c1ccccc1	2.18	–
CC(CCC(=O)O)C1CCC2C3C(O)C(O)C4CC(O)CCC4(C)C3CCC12C (stereo not drawn)	2.8	–
CC1CCC(=O)N1C (stereo not drawn)	-0.07	–
CCCCc1c(C)nc(NCC)nc1O	2.22	–
O=P(O)(O)CN(CP(=O)(O)O)CP(=O)(O)O	-3.53	–
CCOc1ccc([N+](=O)[O-])cc1NC(=O)CC	1.85	–
O=C(O)c1c(C(=O)O)c(C(=O)O)c(C(=O)O)c(C(=O)O)c1C(=O)O	1.5	–
Cn1ccc(=O)c(O)c1	-0.7	–
O=[N+]([O-])c1ccc(O)cc1C(F)(F)F	–	24.1 mM (≈ 5000 µg/mL)
COc1ccc2c3c1O[C@H]1[C@@H](O)C=C[C@H]4[C@@H](C2)NCC[C@@]341	0.69	–
CCNC(=O)CCC(NS(=O)(=O)c1ccccc1)C(=O)O (stereo not drawn)	0.15	–
Clc1cc2c(Cl)ccc(Cl)c2c(Cl)c1Cl	6.8	–
CCC(=O)OCN1C(=O)NC(c2ccccc2)(c2ccccc2)C1=O	2.8	–
O=C(O)CCCC(=O)c1ccc(-c2ccccc2)cc1	3.35	–
COP(=S)(OC)Oc1ccc(SC)cc1	3.74	–
C[Si](C)(C)O[Si](C)(C)O[Si](C)(C)O[Si](C)(C)C	8.21	–
O=c1[nH]c(=O)n([C@H]2C[C@H](O)[C@@H](CO)O2)cc1I	-0.96	–
c1ccc2c(c1)Cc1cccnc1-2	2.96	–
O=C(O)CNC(=O)c1ccc(I)cc1	1.94	–

Same assay, conditions: 20 °C

SMILES	solubility
Nc1ccc(Cl)c(Cl)c1	0.568 mM (≈ 92 µg/mL)
ClCC(Br)CBr (stereo not drawn)	4.69 mM (≈ 1110 µg/mL)
CCNc1nc(NC(C)C)nc(OC)n1	8.52 mM (≈ 1800 µg/mL)
c1ccc(C2CO2)cc1 (stereo not drawn)	25 mM (≈ 3000 µg/mL)
O=C1OC2(c3ccc(O)cc3Oc3cc(O)ccc32)c2ccccc21	0.15 mM (≈ 50 µg/mL)
CCC#CC(C)O (stereo not drawn)	387 mM (≈ 38000 µg/mL)
C/C=C/CCC	0.594 mM (≈ 50 µg/mL)
CS(=O)(=O)F	306 mM (≈ 30000 µg/mL)

Same assay, conditions: 22 °C

SMILES	solubility
ClC=CCCl (mixture of isomers)	14.5 mM

Same assay, conditions: 23.0 °C

SMILES	log10 OH rate constant (cm³/molecule/s)
CC(C)CC(C)(C)O	-10.9
CCC(C)OCOC(C)CC (stereo not drawn)	-10.4
CCC(=O)C(O)CC (stereo not drawn)	-10.8
C=C1C2CCC(C2)C1(C)C (stereo not drawn)	-10.3

Same assay, conditions: 24.0 °C

SMILES	log10 OH rate constant (cm³/molecule/s)
c1ccc2c(c1)sc1ccccc12	-11.1

Same assay, conditions: 25 °C

SMILES	solubility
O=C1CCO1	5130 mM (≈ 370000 µg/mL)
ClCC(Cl)CCl	11.9 mM (≈ 1750 µg/mL)
CCCCCCCCCCN	3.5 mM (≈ 550 µg/mL)
Nc1ccccc1Cl	64 mM (≈ 8160 µg/mL)
ClC(Cl)=C(Cl)C(Cl)(Cl)Cl	0.0684 mM (≈ 17 µg/mL)
CCCCCCCCCCCCCCC	3.58e-07 mM (≈ 7.6e-05 µg/mL)
ClC(Cl)=C(Cl)C(Cl)=C(Cl)Cl	0.0123 mM (≈ 3.2 µg/mL)
c1ccc2c(c1)ccc1c3ccc4ccccc4c3[nH]c21	3.78e-05 mM (≈ 0.0101 µg/mL)
CC(CCc1ccccc1)NCC(O)c1ccc(O)c(C(N)=O)c1 (stereo not drawn)	0.356 mM (≈ 117 µg/mL)
Oc1ccccc1Cl	87.9 mM (≈ 11300 µg/mL)
FCCl	151 mM (≈ 10400 µg/mL)
O=[N+]([O-])c1ccc2c3c(cccc13)CC2	0.00457 mM (≈ 0.91 µg/mL)
CC(=O)OCC(=O)[C@H]1CC[C@H]2[C@@H]3CCC4=CC(=O)CC[C@]4(C)[C@H]3CC[C@]12C	0.0234 mM (≈ 8.73 µg/mL)
Cc1ccc2cc3ccc4ccccc4c3cc2c1	0.000227 mM (≈ 0.055 µg/mL)
OCC(CO)(CO)COCC(CO)(CO)CO	11 mM (≈ 2800 µg/mL)
O=C(O)c1cccc(C(=O)O)c1	0.602 mM (≈ 100 µg/mL)
NNC(=O)c1ccncc1	1020 mM (≈ 140000 µg/mL)
CCCCCCCCCCCCCCCCCCCC	6.72e-06 mM (≈ 0.0019 µg/mL)
Nc1ccc2cc3ccccc3cc2c1	0.00673 mM (≈ 1.3 µg/mL)
Clc1cc2ccccc2cc1Cl	0.00044 mM (≈ 0.0867 µg/mL)
CCCN(CCC)c1c([N+](=O)[O-])cc(C(C)C)cc1[N+](=O)[O-]	0.000339 mM (≈ 0.105 µg/mL)
OCCCc1ccccc1	41.7 mM (≈ 5680 µg/mL)
Cc1ccccc1C(C)C	0.174 mM (≈ 23.3 µg/mL)
C[Si](C)(C)O[Si](C)(C)O[Si](C)(C)O[Si](C)(C)C	2.17e-05 mM (≈ 0.00674 µg/mL)
CC(C)NC(C)C	1090 mM (≈ 110000 µg/mL)

Same assay, conditions: 25.0 °C

SMILES	log10 OH rate constant (cm³/molecule/s)
c1ccc2c(c1)Oc1ccccc1O2	-10.9
O=C/C=C/C=C/C=O	-10
CC(=O)C(C)C	-11.5
CC/C=C\CCOC(C)=O	-10.1
CNC(=O)OC	-11.4
CC(Br)Br	-12.6
C=COC(C)=O	-10.6
CC(C)[N+](=O)[O-]	-12.6
FC(F)OC(F)(F)C(F)Cl (stereo not drawn)	-13.9
FCC(F)(F)C(F)F	-14
CCC(C)Cl (stereo not drawn)	-11.6
CC1(C)C2CCC(=O)C1C2 (stereo not drawn)	-10.8

Same assay, conditions: 27 °C

SMILES	solubility
NCCc1c[nH]c2ccc(O)cc12	114 mM (≈ 20000 µg/mL)

Same assay, conditions: 27.0 °C

SMILES	log10 OH rate constant (cm³/molecule/s)
Cc1ccc(C=O)o1	-10.3

Same assay, conditions: 30 °C

SMILES	solubility
Cc1ccc([N+](=O)[O-])cc1	3.22 mM (≈ 442 µg/mL)

Same assay, conditions: pH 7.4

SMILES	logD
COc1c(C)c2c(c(O)c1C/C=C(\C)CCC(=O)OCCN1CCOCC1)C(=O)OC2	2.38

Source: the OPERA property sets (Mansouri et al. 2018)
